Experimental data: paper PMC3170264 (Retrovirology, 2011)

Legend:
HIV-2 IN N155H = HIV-2 IN N155H (Human immunodeficiency virus type 2 subtype B, UniProt Q89928, I1218V/I1301V/I1372V/M1455R/N1185G/N1323H/N1438H/R1202K/R1392Q/T1348V/T1383A/V1460M); details: N155H in N1 background; 200 nM IN
Procedure: (§1) Mutations were introduced in the HIV-2 N1 background by mutagenesis. […] Activity is expressed as a % of control without drug. Experiments were performed two times.
(§2) The IN coding sequences from the viruses isolated from the plasma of HIV-2-infected patients N1 to N3 and T1 to T7 were amplified by PCR and sequenced according to a previously described procedure. PCR products corresponding to the entire IN sequence were amplified again with the following specific primers containing NdeI and BamH I restriction sites at their 5' ends. Primer 1: N1, N2, T1, T2, 5'-[…]-3'; N3, 5'-[…]-3'; T3-T7, 5'-[…]-3'. Primers 2: N1, 5'-[…]-3'; N2, 5'-[…]-3'; N3, 5'-[…] The amplicons were then ligated into the TA cloning plasmid pGEM-T easy (Promega, Madison, USA). Single (E92Q, T97A, G140S, Q148R, Y143C, N155H) and double (G140S/Q148R, Y143C/N155H, E92Q/Y143C and T97A/Y143C) mutations were introduced into the HIV-2 wild-type N1 sequence by mutagenesis using the QuickChange II site-directed mutagenesis kit (Agilent Technologies, Santa Clara, USA) according to the manufacturer instructions. NdeI - BamH fragments covering the IN coding sequence were then inserted into the expression vector pET-15b.
(§3) The activity of wild-type and mutated INs was determined in vitro, as previously described. Briefly, oligonucleotides (ODN) mimicking the end of the U5 long terminal repeat of the viral genome were radiolabeled with T4 polynucleotide kinase (Biolabs, Ipswich, USA) and [γ-^32P] ATP (3,000 Ci/mmol) (Amersham, GE Healthcare, USA), then purified on a Sephadex G-10 column (GE Healthcare, USA). Double-stranded ODNs were obtained by mixing equimolar amounts of complementary strands in the presence of 100 mM NaCl.

HIV-2 IN Y143C = HIV-2 IN Y143C (Human immunodeficiency virus type 2 subtype B, UniProt Q89928, I1218V/I1301V/I1372V/M1455R/N1185G/N1438H/R1202K/R1392Q/T1348V/T1383A/V1460M/Y1311C); details: Y143C in N1 background; 200 nM IN
Procedure: as §1, §2, §3

HIV-2 IN G140S/Q148R = HIV-2 IN G140S/Q148R (Human immunodeficiency virus type 2 subtype B, UniProt Q89928, G1308S/I1218V/I1301V/I1372V/M1455R/N1185G/N1438H/Q1316R/R1202K/R1392Q/T1348V/T1383A/V1460M); details: G140S/Q148R in N1 background; 200 nM IN
Procedure: as §1, §2, §3

HIV-2 IN T97A/Y143C = HIV-2 IN T97A/Y143C (Human immunodeficiency virus type 2 subtype B, UniProt Q89928, I1218V/I1301V/I1372V/M1455R/N1185G/N1438H/R1202K/R1392Q/T1265A/T1348V/T1383A/V1460M/Y1311C); details: T97A/Y143C in N1 background; 200 nM IN
Procedure: as §1, §2, §3

HIV-2 IN E92Q = HIV-2 IN E92Q (Human immunodeficiency virus type 2 subtype B, UniProt Q89928, E1260Q/I1218V/I1301V/I1372V/M1455R/N1185G/N1438H/R1202K/R1392Q/T1348V/T1383A/V1460M); details: E92Q in N1 background; 200 nM IN
Procedure: as §1, §2, §3

What does the source list for `Cc1nnc(C(=O)NC(C)(C)c2nc(C(=O)NCc3ccc(F)cc3)c(O)c(=O)n2C)o1` [RAL, raltegravir]?
resistance to RAL, strand transfer (HIV-2 IN N155H): high level of resistance; resistance to RAL, strand transfer (HIV-2 IN Y143C): did not lead to significant resistance; resistance to RAL, strand transfer (HIV-2 IN G140S/Q148R): highly resistant; resistance to RAL, strand transfer (HIV-2 IN T97A/Y143C): did not lead to detectable IN resistance; resistance to RAL, strand transfer (HIV-2 IN E92Q): did not confer significant resistance
